In EP0153858A2, “The therapeutic use of prostaglandins” (THE UPJOHN COMPANY, priority 1984, dated 1985):

Tests used:
[1] = tested on: microvascular permeability; details: sheep; cited from earlier work
[2] = tested on: patients suffering from ARDS; assay: Prospective randomized double blind placebo controlled study of PGE1 infusion in ARDS patients (Example 1); assay type: in vivo, human; details: 30 days after discontinuing the infusion; i.v. 5 ng/kg/min increased to 30 ng/kg/min, for 7 days or until extubated; 21 patients
Description: An intravenous solution was prepared by mixing one 5 ml ampoule of Prostin VR Pediatric Sterile Solution containing 2.5 mg PGE1 active drug with one liter of D5W or Normal Saline. Dosages of this solution or of a control solution containing only vehicle but no PGE1 were administered to 41 patients suffering from ARDS in a prospective randomized double blind placebo controlled study. PGE1 or the control solution was started at a dose of 5 ng/kg/min and then increased 5 ng/kg/min every 30 minutes until a rate of 30 ng/kg/min was reached.
This dosage was continued for 7 days or until the patient was extubated, whichever came sooner. The survival rate 30 days after discontinuing the infusion was as follows: […]

[3] = tested on: patients with severe postoperative ARDS; details: cited from earlier work
[4] = tested on: patients with ARDS; assay: Double blind randomized study of PGE1 versus placebo in ARDS patients; survival, and mortality by creatinine/bilirubin level (Example 2); assay type: in vivo, human; details: 30 ng/kg/min for 7 days; 17 out of 26 patients survived
Description: Fifty patients with ARDS were randomized to receive PGE1 (30 ng/kg/min for 7 days) or placebo (equivalent volumes of saline and time) in a double blind study. For entry, patients must have required mechanical ventilation with an inspired oxygen concentration of 40% or more and a positive end respiratory pressure of 5 em of water or more. Most of the patients (70%) were septic. 17 out of 26 patients who had received PGE1 survived (65% survival) while only 7 out of 24 patients who had received placebo survived (29% survival).
The relation between the bilirubin and creatinine levels and the mortality of the patients enrolled in this study is depicted in Table 2. […] Creatinine and bilirubin levels are indicative of kidney and liver function, respectively. The data thus indicate that PGE1 prevents severe kidney and liver damage, and greatly decreases the risk of death, for patients highly susceptible to kidney failure, liver failure, and/or death as a result of trauma, sepsis, shock, and similar catastrophic events.

[5] = tested on: endotoxin-induced lung injury; details: infusion of the prostaglandin; cited from earlier work
[6] = tested on: beagles suffering from hemorrhagic shock; details: infusion; cited from earlier work
[7] = tested on: trauma; details: reported experimentally; cited from earlier work

Structure (SMILES)	increase of microvascular permeability [1]	Survival Rate (%) [2]	lung function of each patient ([3]; 5 patients with severe postoperative ARDS)	patients died of associated problems, including vital organ failure ([3]; of 5 patients with severe postoperative ARDS)	survival [4]	lung and systemic injury associated with endotoxin infusion [5]	survival rate [6]	survival rate after trauma [7]
CCCCC[C@H](O)/C=C/[C@H]1[C@H](O)CC(=O)[C@@H]1CCCCCCC(=O)O [PGE1, Prostaglandin E1]	Reversal	71.4%	improved	three	65%	decreased	improved	
CCCCC[C@H](O)/C=C/[C@@H]1[C@H]2C/C(=C/CCCC(=O)O)O[C@H]2C[C@H]1O [PGI2, prostacyclin]						decreased		beneficial in increasing the survival rate
